Consider ten compounds from patent US20070105810A1, “THERAPEUTICS” (priority 2003, published 2007).

Entries after “also recorded” stand apart in the source; their conditions may differ. Structures can show the parent of a compound that is named as a salt.

One series has as its system pancreatic acinar cells. Kind of series: CCK-induced oscillations of Ca2+ in pancreatic acinar cells. Type of series: cell-based, mouse. Particulars: for CCK-evoked calcium spiking/oscillations: external application, 1 mM, pre- and post-applied with respect to CCK (5 pM). The procedure: Pancreatic acinar cells were seeded onto poly-lysine-coated number 1 glass coverslips and loaded by incubating cells with 1-5 μM fura-2 acetoxymethylester (Molecular Probes; Leiden, Holland) for 60 min at room temperature. After the loading period, cells were subsequently washed and maintained in buffer at room temperature and used immediately. Cells were excited alternately with 340 and 380 nm light (emission 510 nm), and ratio image of clusters were recorded every 4-5 s, using a 12-bit CCD camera (MicroMax; Princeton Instruments, NJ). All experiment were conducted at room temperature. CMA008 (1-Carbamoylmethyl-3-carboxy-pyridinium iodide) is dissolved in 50% DMSO. Final concentration of DMSO is 0.5% in the solution (composition in mM: 140 NaCl, 4.7 KCl, 1 CaCl2, 1.13 MgCl2, 10 HEPES, 10 Glucose, pH adjusted to 7.2)
Pancreatic acinar cells were isolated from mice and dispersed by collagenase treatment. Cells were incubated with fura-2 AM for 30 min and washed before being imaged on a Metafluor system. The cells were alternately excited at 340/380 nm and emitted light collected at around 510 nm. The ratio of the intensities of emitted light at the two excitation wavelengths were calculated, converted to free calcium concentrations, and plotted again time.
Pancreatic acinar cells were seeded onto poly-lysine-coated number 1 glass coverslips and loaded with calcium indicator by incubating cells with […] fura-2 acetoxymethylester (Molecular Probes; Leiden, Holland) for 60 min at room temperature. After the loading period, cells were subsequently washed and maintained in buffer at room temperature and used immediately. Cells were excited alternately with 340 and 380 nm light (emission 510 nm), and ratio image of clusters 5 were recorded every 4-5 s, using a 12-bit CCD camera (MicroMax; Princeton Instruments, NJ).
All experiments were conducted at room temperature. CMA008 (1-Carbamoylmethyl-3-carboxy-pyridinium iodide) was dissolved in 50% DMSO. Final concentration of DMSO was 0.5% in the solution (composition in mM: 140 NaCl, 4.7 KCl, 1 CaCl2, 1.13 MgCl2, 10 HEPES, 10 Glucose, pH adjusted to 7.2). The inhibition of CCK-evoked calcium spiking, both pre- and post-applied with respect to CCK (5 pM), was consistent with inhibition of NAADP-induced calcium release by CMA008 (1 mM). The biological data for these experiments is presented in FIG. 7 (see also the description of the figures above).

Series [1] has as its system calcium mobilization by cADPR. The series is described as follows: Calcium mobilization by cADPR in sea urchin egg homogenate. Type of series: biochemical. The procedure: (§1) Samples diluted to 2.5% in GluIM in the presence of regenerating system and kept at 17° C. with agitation for 3 hours to facilitate calcium uptake into stores. Calcium release was determined by measuring increase in Fluo-3 fluorescence at 526 nm. Data expressed as % of 250 nM NAADP calcium release in the absence of CMA008 (1-Carbamoylmethyl-3-carboxy-pyridinium iodide). […] CMA008 has no effect on the total calcium mobilization by IP3 or cADPR (insert) indicating the selectivity of this compound on the NAADP-sensitive release mechanism.
(§2) • Subcellular fractions: calcium concentrations are measured with fluo-3 (3 μM) at physiological temperatures, using cell homogenates or subcellular fractions in a fluorimeter (Perkin-Elmer LS-50B) at 506 nm excitation and 526 nm emission. • Intact cells: Injected or hydrolysed ester derivatives of calcium sensitive dye are imaged in intact cells by laser-scanning confocal microscopy (TCS NT, Leica) Images were processed with the software NIH Image to create a self-ratio by dividing each image (F) by an image acquired before stimulation (Fo). [drawing 13] wherein R1, R2 and R3 are as defined herein. I Preparation of Nicotinic Acid Derivatives [drawing 14]
(A change in cytosolic calcium serves as a functional read-out for many receptors and channels.)

Series [2] relates to NAADP-induced calcium release in intact sea urchin eggs. The series is described as follows: Calcium release on photolysis of caged NAADP in intact sea urchin eggs. Format: cell-based, Lytechinus pictus. From the text:
Sea urchin eggs were microinjected with a solution containing the calcium reporter dye, calcium green dextran, together with caged NAADP. Fluorescence was then imaged on a Leica confocal microscope using an excitation wavelength of 488 nm. In the control egg [see FIG. 6 A] a brief UV flash photolysed a proportion of the caged NAADP and evoked a large calcium transient.
Sea urchin eggs of Lytechinus pictus were obtained by intracoelomic injection of 0.5 M KCl shed into artificial sea water (in mM, NaCl 435, MgCl2 40, MgSO4 15, CaCl2 11, KCl 10, NaHCO3 2.5, EDTA 1), dejellied by passing through […] nylon mesh, and then washed twice by centrifugation. Eggs were transferred to polylysine-coated glass coverslips for microinjection and microscopy. Oregon Green 488 BAPTA (1,2-bis(2-aminophenoxy)ethane-N,N,N9,N9-tetraacetic acid dextran; Molecular Probes) was pressure-microinjected (Picospritzer; World Precision Instruments). The calcium-sensitive dye was imaged by laser-scanning confocal microscopy (Leica model TCS NT) using the 488-nm line of an argon ion laser for excitation, and the emission was long passfiltered (515 nm) and detected with a photomultiplier tube. Caged NAADP (^29P-(1-(2-nitrophenyl)ethyl) NAADP; Molecular Probes) was purified further by high performance liquid chromatography to remove small amounts of contaminating free NAADP. […]

In another series the test system is NAADP binding site. Kind of series: [32P]NAADP binding to sea urchin egg homogenate. As to the method: [^32P]NAADP binding to 0.5% sea urchin egg homogenate.
Competitive CMA008 (1-Carbamoylmethyl-3-carboxy-pyridinium iodide) displacement of [^32P]NAADP (0.2 nM). Samples diluted in GluIM (intracellular medium), pre-incubated with indicated concentration of CMA008 for 10 minutes, then 0.2 nM [^32P]NAADP added and incubated at room temperature for a further 15 mins. Samples filtered through Whatman GF/B filters to separate bound and free [^32P]NAADP ligand. Non specific binding is defined by incubation of the homogenate in the presence of 10 μM NAADP. n=2. Data expressed as a fraction of total binding.
2.5% sea urchin egg homogenate was diluted into GluIM pre-incubated with indicated concentration of CMA008 for 10 minutes at room temperature (A=100 nM, B=1 nM, C=10 μM). Subsequently, [^32P]NAADP was added and samples incubated for a further 15 minutes at room temperature. Samples were filtered through Whatman GF/B filters to separate bound and free [^32P]NAADP ligand.

In series [3] the test system is NAADP-sensitive release mechanism. Kind of series: NAADP-mediated calcium release in sea urchin egg homogenate (Fluo-3). Type of series: biochemical. Particulars: 250 nM NAADP, 2.5% homogenate, read-out: IC50, inhibition of NAADP calcium mobilization. As to the method: as §1, §2
Series [4] relates to calcium mobilization by IP3. The series is described as follows: Calcium mobilization by IP3 in sea urchin egg homogenate. Type of series: biochemical. The procedure: as §1, §2
Series [5] has as its system transfer experimental autoimmune encephalomyelitis (EAE) in Lewis rats. The series is described as follows: Transfer experimental autoimmune encephalomyelitis (EAE). Format: in vivo, Lewis rat. Particulars: 50 μmol/100 g body weight i.p. twice per day; day 3.5 to day 6. From the text: Transfer of MBP-specific CD4-positive T cells was used at day 0 to induce experimental autoimmune encephalomyelitis (EAE) in Lewis rats. Animals injected with PBS (vehicle) or nicotinic acid (control compound with structural similarities to BZ52) developed severe paralysis of tail and rear legs due to the inflammation. Clinical symptoms started day 3.5 and reached their maxima day 4 to 6 (or 6.5). Between day 3.5 and day 6, no difference between PBS and nicotinic acid was observed, whereas a beneficial effect of BZ52 was visible (FIG. 14).
Animals (6 per group, body weight approx. 150 g) were injected i.p. twice per day with either PBS (vehicle control), nicotinic acid (50 μmol/100 g body weight), or BZ 52 (50 μmol/100 g body weight). Clinical scores indicate the degree of paralysis of tail and legs. Data are presented as mean±SD from one representative experiment (n=6).
Animals (6 per group, body weight approx. 150 g) were injected i.p. twice per day with either PBS (vehicle control), nicotinic acid (50 μmol/100 g body weight), or BZ 52 (50 μmol/100 g body weight). […] Data are presented as mean±SD from one representative experiment (n=6).
5×10^6 activated MBP specific-GFP Tcells were transferred i.v. into recipient Lewis rats. Clinical EAE was graded in five scores: 0.5, loss of tail tonus; 1, tail paralysis; 2, gait disturbance; 3, hind limb paralysis; 4, tetraparesis; 5, death.
Animals' weight was measured twice a day.
In order to analyze the effect of BZ194 on encephalitogenic T cells during the effector phase of EAE we used retrovirally transduced MBP-specific T cells expressing the marker gene green fluorescent protein (TMBP-GFP cells).
Animals were treated for 5 d intraperitoneally with 500 μmol BZ194 or vehicle (DMSO).

Turning to `O=C(O)c1ccc[n+](Cc2ccccc2)c1` (as salt: bromide), the melting point – broadly, the temperature of the solid-liquid transition – lay in the range of 203 to 205 °C.
The same measure, in the same setting: for `CCC[n+]1cccc(C(=O)O)c1` (as salt: iodide) the value was 162 to 165 °C.
The same measure, in the same setting: for `CCN(CC)C(=O)C[n+]1cccc(C(=O)OC)c1` (as salt: iodide) the value was 163 to 165 °C; for `COC(=O)c1ccc[n+](CCC(N)=O)c1` (as salt: iodide), 98 to 100 °C.
Same read-out and setting: for `COC(=O)c1ccc[n+](CCCC#N)c1` (as salt: iodide) the value was 167 to 170 °C; for `CCN(CC)CC[n+]1cccc(C(=O)OC)c1` (as salt: iodide), 172 to 174 °C.
Regarding `CCN(CC)C(=O)C[n+]1cccc(C(=O)O)c1` (as salt: iodide) [Example 10, 3-Carboxy-1-diethylcarbamoylmethyl-pyridinium; iodide], the melting point was in the range of 97 to 100 °C.
With `NC(=O)CC[n+]1cccc(C(=O)O)c1` (as salt: iodide) [Example 11, 1-(2-Carbamoyl-ethyl)-3-carboxy-pyridinium; iodide], the melting point was 170 to 173 °C.
With `NC(=O)C[n+]1cccc(C(=O)O)c1` [CMA008, 1-Carbamoylmethyl-3-carboxy-pyridinium iodide], in the series on pancreatic acinar cells (CMA008 1 mM added post-CCK (5 pM)), the CCK-evoked calcium spiking entry is given as “inhibition”. The resting calcium levels entry in the series with pancreatic acinar cells (CMA008 1 mM added pre-CCK) is “no apparent effect”. Besides, the “response to CCK” value in the series with pancreatic acinar cells (CMA008 1 mM added pre-CCK (5 pM)) was “a much smaller response to CCK was seen, with a greatly reduced frequency”. In addition, the CCK-evoked calcium spiking/oscillations entry with pancreatic acinar cells is recorded as “inhibition”; in the series on pancreatic acinar cells (listed as CM008), “inhibited or reduced”. For the same compound, the “effect on total calcium mobilization by cADPR” value in series [1] is “no effect”. Besides, the “calcium release on photolysis of caged NAADP” value in series [2] (CMA008 10 mM applied externally in sea water, NPE-NAADP 1 μM) was “blocks; also recorded: failed to induce”. Moreover, in series [2] (inferred from activity of compound applied outside the cell), the cell membrane permeation result is “permeates the cell membrane”. Further, the “effect on the Bmax” value in the series on NAADP binding site (1 nM and 100 nM CMA008) is listed as “no effect”. For the same compound, the “Bmax (total specific binding of [32P]NAADP)” value in the series with NAADP binding site (in the presence of 10 μM CMA008, 2.5% homogenate, 68.65%±2.7 in its absence) is 46.28%±2.61. Also, in series [3], the 50% inhibitory concentration (IC50) – broadly, the midpoint of a concentration-inhibition curve – was 15.1 µM. Moreover, the “effect on total calcium mobilization by IP3” value in series [4] is recorded as “no effect”.
In the case of `O=C(O)c1cccnc1` [nicotinic acid, reference compound], the “effect on [32P]NAADP binding to egg membranes” value with NAADP binding site (up to 1 mM, 0.2 nM [32P]NAADP, 0.5% homogenate) is on record as “without effect”. In series [5], the “clinical symptoms (clinical score) vs PBS” value is “no difference”.
